In patent US8202881B2, “JAK2 inhibitors and their use for the treatment of myeloproliferative diseases and cancer” (Bristol-Meyers Squibb Company, priority 2009, dated 2012):

Key:
SET-2 cells = test: Cell Proliferation Inhibition Assay (3H-thymidine incorporation); assay type: cell-based; settings: Homo sapiens, 72 h with compound
Protocol: Cell Proliferation Inhibition Assay
Compounds were evaluated for their ability to inhibit cell proliferation, using an assay that measures thymidine incorporation in the DNA of the dividing cell, which is directly correlated with cell numbers. SET-2 cells were plated at 10000 cells/well in 96-well plates and were cultured for 24 h in RPMI-1640 supplemented with 20% fetal bovine serum, before test compounds were added. Compounds were diluted in culture medium such that the final concentration of dimethyl sulfoxide never exceeded 0.1%. Following the addition of compounds, the cells were cultured for an additional 72 h before cell proliferation was determined by measuring DNA synthesis with 3H-thymidine incorporation.

JAK2 = JAK2 (Homo sapiens, UniProt O60674); test: JAK2 Tyrosine Kinase Assay; assay type: biochemical; settings: for IC50: ATP 30 μM, JAK2 1 nM, 60 min room temperature
Sequence of JAK2 (O60674 whole entry): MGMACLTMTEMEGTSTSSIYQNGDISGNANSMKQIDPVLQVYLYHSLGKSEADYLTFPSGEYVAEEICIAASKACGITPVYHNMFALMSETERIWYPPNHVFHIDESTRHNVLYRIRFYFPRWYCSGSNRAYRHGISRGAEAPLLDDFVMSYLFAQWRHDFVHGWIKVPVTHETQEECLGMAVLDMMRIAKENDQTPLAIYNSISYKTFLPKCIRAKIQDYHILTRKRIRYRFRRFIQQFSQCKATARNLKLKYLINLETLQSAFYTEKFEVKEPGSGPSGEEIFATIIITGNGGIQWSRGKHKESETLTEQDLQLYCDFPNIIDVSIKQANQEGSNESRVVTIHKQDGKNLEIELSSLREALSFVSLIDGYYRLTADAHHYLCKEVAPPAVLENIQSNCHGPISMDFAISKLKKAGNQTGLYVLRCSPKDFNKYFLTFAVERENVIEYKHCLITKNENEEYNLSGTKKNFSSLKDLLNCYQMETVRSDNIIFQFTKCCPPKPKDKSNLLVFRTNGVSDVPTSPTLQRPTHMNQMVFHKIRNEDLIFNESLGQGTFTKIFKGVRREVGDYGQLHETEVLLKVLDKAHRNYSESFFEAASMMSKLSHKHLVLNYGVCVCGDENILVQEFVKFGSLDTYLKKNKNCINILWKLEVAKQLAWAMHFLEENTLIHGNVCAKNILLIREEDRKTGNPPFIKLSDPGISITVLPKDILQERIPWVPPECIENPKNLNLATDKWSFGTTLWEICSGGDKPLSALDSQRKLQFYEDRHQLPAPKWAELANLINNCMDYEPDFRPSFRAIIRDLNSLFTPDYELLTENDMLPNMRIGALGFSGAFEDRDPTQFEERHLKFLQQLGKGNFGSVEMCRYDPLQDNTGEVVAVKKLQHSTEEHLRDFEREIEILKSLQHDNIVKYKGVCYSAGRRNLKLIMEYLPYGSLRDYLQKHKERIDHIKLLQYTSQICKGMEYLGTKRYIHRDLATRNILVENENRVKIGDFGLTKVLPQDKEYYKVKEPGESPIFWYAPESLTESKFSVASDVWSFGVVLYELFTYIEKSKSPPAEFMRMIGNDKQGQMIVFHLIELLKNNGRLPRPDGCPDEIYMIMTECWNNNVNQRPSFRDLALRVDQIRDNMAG
Protocol: JAK2 Tyrosine Kinase Assay
The assays were performed in V-bottom 384-well plates. The final assay volume was 30 μL prepared from 15 μL additions of enzyme and substrates (fluoresceinated peptide and ATP) and test compounds in assay buffer (100 mM HEPES pH 7.4, 10 mM MgCl2, 25 mM Beta-Glycerolphosphate, 0.015% Brij35 and 4 mM DTT). The reaction was initiated by the combination of JAK2 with substrates and test compounds. The reaction was incubated at room temperature for 60 min. and terminated by adding 45 μL of 35 mM EDTA to each sample. The reaction mixture was analyzed on the Caliper LabChip 3000 by electrophoretic separation of the fluorescent substrate and phosphorylated product. Inhibition data were calculated by comparison to no enzyme control reactions for 100% inhibition and vehicle-only reactions for 0% inhibition. The final concentration of reagents in the assays is ATP, 30 μM; JAK2 fluorescent peptide, 1.5 μM; JAK2, 1 nM; and DMSO, 1.6%. Dose response curves were generated to determine the concentration required inhibiting 50% of kinase activity (IC50). Compounds were dissolved at 10 mM in dimethylsulfoxide (DMSO) and evaluated at eleven concentrations, each in duplicate. IC50 values were derived by non-linear regression analysis

Structure (SMILES) | IC50 (SET-2 cells) [nM] | IC50 (JAK2) [nM] | activity against JAK2 (JAK2; result in words)
CCn1c(C(=O)N(C2CC2)C2CC2)cc2c3c(ncn3C)c(Nc3nc(CF)cs3)nc21 [Example 3, N,N-dicyclopropyl-6-ethyl-4-(4-(fluoromethyl)thiazol-2-ylamino)-1-methyl-1,6-dihydroimidazo[4,5-d]pyrrolo[2,3-b]pyridine-7-carboxamide] | 10 | 1.5 | 
CCn1c(C(=O)N(C2CC2)C2CC2)cc2c3c(ncn3C)c(Nc3nc(C(C)(C)C)cs3)nc21 [Example 4, 4-(4-tert-butylthiazol-2-ylamino)-N,N-dicyclopropyl-6-ethyl-1-methyl-1,6-dihydroimidazo[4,5-d]pyrrolo[2,3-b]pyridine-7-carboxamide] | 2530 | 30 | 
CCn1c(C(=O)N(C2CC2)C2CC2)cc2c3c(ncn3C)c(Nc3nc(C(=O)NC4CCS(=O)(=O)C4)cs3)nc21 (stereo not shown) [Example 15, N,N-dicyclopropyl-4-((4-((1,1-dioxidotetrahydro-3-thiophenyl)carbamoyl)-1,3-thiazol-2-yl)amino)-6-ethyl-1-methyl-1,6-dihydroimidazo[4,5-d]pyrrolo[2,3-b]pyridine-7-carboxamide] | 490 | 1.52 | 
CCn1c(C(=O)N(C2CC2)C2CC2)cc2c3c(ncn3C)c(Nc3nc(C(F)(F)F)c(C)s3)nc21 [Example 29, N,N-dicyclopropyl-6-ethyl-1-methyl-4-(5-methyl-4-(trifluoromethyl)thiazol-2-ylamino)-1,6-dihydroimidazo[4,5-d]pyrrolo[2,3-b]pyridine-7-carboxamide] | 10000 | 10 | 
CCn1c(C(=O)N(C2CC2)C2CC2)cc2c3c(ncn3C)c(Nc3nc4c(s3)CS(=O)(=O)CC4)nc21 [Example 33, 4-(5,5-dioxo-4,5,6,7-tetrahydro-5λ^6-thiopyrano[4,3-d]thiazol-2-ylamino)-6-ethyl-1-methyl-1,6-dihydro-1,3,5,6-tetraaza-as-indacene-7-carboxylic acid dicyclopropylamide] | 10 | 0.637 | 
CCn1c(C(=O)N(C2CC2)C2CC2)cc2c3c(ncn3C)c(Nc3nc(C)c(C(C)=O)s3)nc21 [Example 34, 4-(5-acetyl-4-methylthiazol-2-ylamino)-N,N-dicyclopropyl-6-ethyl-1-methyl-1,6-dihydroimidazo[4,5-d]pyrrolo[2,3-b]pyridine-7-carboxamide] | 240 | 1.5 | 
CCn1c(C(=O)N(C2CC2)C2CC2)cc2c3c(ncn3C)c(Nc3nc4cc[nH]c(=O)c4s3)nc21 [Example 35, N,N-dicyclopropyl-6-ethyl-1-methyl-4-(4-oxo-4,5-dihydrothiazolo[5,4-c]pyridin-2-ylamino)-1,6-dihydroimidazo[4,5-d]pyrrolo[2,3-b]pyridine-7-carboxamide] | 2850 | 0.536 | 
CCn1c(C(=O)N(C2CC2)C2CC2)cc2c3c(ncn3C)c(Nc3ncc(C#N)s3)nc21 [Example 38, 4-(5-cyanothiazol-2-ylamino)-N,N-dicyclopropyl-6-ethyl-1-methyl-1,6-dihydroimidazo[4,5-d]pyrrolo[2,3-b]pyridine-7-carboxamide] | 60 | 40 | 
CCNC(=O)c1nc(Nc2nc3c(cc(C(=O)N(C4CC4)C4CC4)n3CC)c3c2ncn3C)sc1C [Example 49, 2-(7-(dicyclopropylcarbamoyl)-6-ethyl-1-methyl-1,6-dihydroimidazo[4,5-d]pyrrolo[2,3-b]pyridine-4-ylamino)-N-ethyl-5-methylthiazole-4-carboxamide] | 3930 | 50 | 
CCn1c(C(=O)N(C2CC2)C2CC2)cc2c3c(ncn3C)c(Nc3nc(C)c(C(=O)NCCOC)s3)nc21 [Example 53, 2-(7-(dicyclopropylcarbamoyl)-6-ethyl-1-methyl-1,6-dihydroimidazo[4,5-d]pyrrolo[2,3-b]pyridin-4-ylamino)-N-(2-methoxyethyl)-4-methylthiazole-5-carboxamide] | 100 | 1.47 | 
CCn1c(C(=O)N(C2CC2)C2CC2)cc2c3c(ncn3C)c(Nc3nc(C)c(C(=O)N4CCC4)s3)nc21 [Example 55, 4-(5-(azetidine-1-carbonyl)-4-methylthiazol-2-ylamino)-N,N-dicyclopropyl-6-ethyl-1-methyl-1,6-dihydroimidazo[4,5-d]pyrrolo[2,3-b]pyridine-7-carboxamide] | 4.3 | 0.748 | 
CCn1c(C(=O)N(C2CC2)C2CC2)cc2c3c(ncn3C)c(Nc3nc(C)c(C(=O)NCC#N)s3)nc21 [Example 61, 4-((5-((cyanomethyl)carbamoyl)-4-methyl-1,3-thiazol-2-yl)amino)-N,N-dicyclopropyl-6-ethyl-1-methyl-1,6-dihydroimidazo[4,5-d]pyrrolo[2,3-b]pyridine-7-carboxamide] |  | 0.751 | 
CCn1c(C(=O)N(C2CC2)C2CC2)cc2c3c(ncn3C)c(Nc3nc(C)c(C(=O)N4CCS(=O)(=O)CC4)s3)nc21 [Example 70] | 330 | 0.733 | 
CCn1c(C(=O)N(C2CC2)C2CC2)cc2c3c(ncn3C)c(Nc3cc(C)n(C)n3)nc21 [Example 73, N,N-dicyclopropyl-4-(1,5-dimethyl-1H-pyrazol-3-ylamino)-6-ethyl-1-methyl-1,6-dihydroimidazo[4,5-d]pyrrolo[2,3-b]pyridine-7-carboxamide] | 60 | 1 | 
CCn1c(C(=O)N(C2CC2)C2CC2)cc2c3c(ncn3C)c(Nc3cc(C)n(C4CCC4)n3)nc21 [Example 81, 4-(1-cyclobutyl-5-methyl-1H-pyrazol-3-ylamino)-N,N-dicyclopropyl-6-ethyl-1-methyl-1,6-dihydroimidazo[4,5-d]pyrrolo[2,3-b]pyridine-7-carboxamide] | 339 | 15.2 | 
CCn1c(C(=O)N(C2CC2)C2CC2)cc2c3c(ncn3C)c(Nc3cnn(C)c3)nc21 [Example 98, N,N-dicyclopropyl-6-ethyl-1-methyl-4-(1-methyl-1H-pyrazol-4-ylamino)-1,6-dihydroimidazo[4,5-d]pyrrolo[2,3-b]pyridine-7-carboxamide] | 7.37 | 0.695 | 
CCn1nc(Nc2nc3c(cc(C(=O)N(C4CC4)C4CC4)n3CC)c3c2ncn3C)cc1C(=O)O [Example 101, 3-(7-(dicyclopropylcarbamoyl)-6-ethyl-1-methyl-1,6-dihydroimidazo[4,5-d]pyrrolo[2,3-b]pyridin-4-ylamino)-1-ethyl-1H-pyrazole-5-carboxylic acid] | 10000 | 0.743 | 
CCn1nc(Nc2nc3c(cc(C(=O)N(C4CC4)C4CC4)n3CC)c3c2ncn3C)cc1C(=O)NCCNC(C)=O [Example 109, 4-((5-((2-acetamidoethyl)carbamoyl)-1-ethyl-1H-pyrazol-3-yl)amino)-N,N-dicyclopropyl-6-ethyl-1-methyl-1,6-dihydroimidazo[4,5-d]pyrrolo[2,3-b]pyridine-7-carboxamide] | 4150 | 1.52 | 
CCn1c(C(=O)N(C2CC2)C2CC2)cc2c3c(ncn3C)c(Nc3cc(CN4CCOCC4)n(C)n3)nc21 [Example 116, N,N-dicyclopropyl-6-ethyl-1-methyl-4-(1-methyl-5-(morpholinomethyl)-1H-pyrazol-3-ylamino)-1,6-dihydroimidazo[4,5-d]pyrrolo[2,3-b]pyridine-7-carboxamide] | 170 | 1.49 | 
CCn1c(C(=O)N(C2CC2)C2CC2)cc2c3c(ncn3C)c(Nc3nc(C)n(C)n3)nc21 [Example 125, N,N-dicyclopropyl-4-(1,5-dimethyl-1H-1,2,4-triazol-3-ylamino)-6-ethyl-1-methyl-1,6-dihydroimidazo[4,5-d]pyrrolo[2,3-b]pyridine-7-carboxamide] | 1270 | 50 | 
CCNC(=O)c1cc2c(nc(NC)c3ncn(C)c32)[nH]1 [Example No. A171, reference compound] |  |  | weak activity
